Drawing on patent publication US20230265151A1, “GIP/GLP1 CO-AGONIST COMPOUNDS” (priority 2020, published 2023), this text covers Ki, Emax and EC50 for three compounds.

Like-named read-outs stand apart in the source and are kept apart here.

Test [1] deals with T1, human GIP receptor (hGIPR) (Homo sapiens, UniProt P48546).
T1 construct: expressed in transfected cells; crude membranes
T1 sequence (P48546 22-466): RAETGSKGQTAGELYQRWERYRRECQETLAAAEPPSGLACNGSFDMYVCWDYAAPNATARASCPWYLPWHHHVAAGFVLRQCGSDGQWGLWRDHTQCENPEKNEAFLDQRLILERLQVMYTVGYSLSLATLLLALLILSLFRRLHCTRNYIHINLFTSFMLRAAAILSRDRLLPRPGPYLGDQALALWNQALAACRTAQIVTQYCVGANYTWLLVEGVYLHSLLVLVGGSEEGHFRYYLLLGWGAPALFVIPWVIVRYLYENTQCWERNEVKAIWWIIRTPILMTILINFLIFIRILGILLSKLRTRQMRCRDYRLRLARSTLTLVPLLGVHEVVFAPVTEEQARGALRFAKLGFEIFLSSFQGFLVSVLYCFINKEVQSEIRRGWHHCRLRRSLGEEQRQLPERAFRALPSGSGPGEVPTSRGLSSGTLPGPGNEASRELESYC
As to the kind of experiment: [125I]-GIP binding, SPA with membranes of CHO cells expressing hGIPR.

The next test deals with hGLP-1R (Homo sapiens, UniProt P43220). As to the kind of experiment: Functional cAMP formation (HTRF) in HEK-293 clonal cells expressing hGLP-1R, 0.1% bovine casein, without or with 1.0% human serum albumin. The test is classed as cell-based. Also on record: expressed in transfected cells. Conditions: for EC50: cAMP, 0.1% bovine casein (no human serum albumin), geometric mean. The method, boiled down:
(§1)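 Cells were stimulated with peptide for 30 min at 37° C, then intracellular cAMP was measured by competitive HTRF (665/620 nm ratio) and converted to nM using a cAMP standard curve. Relative EC50 and Emax came from four-parameter logistic fits of percent maximal response against peptide concentration.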
Background: Cyclic AMP is a second messenger, typically raised through Gs and lowered through Gi signalling.

A further test has as its target T2, hGCGR (Homo sapiens, UniProt P47871).
T2 construct: expressed in transfected cells
As to the kind of experiment: Functional cAMP formation (HTRF) in HEK-293 clonal cells expressing hGCGR, 0.1% bovine casein, without or with 1.0% human serum albumin. The test is classed as cell-based. A digest of the protocol:
as §1

Another test addresses T3, hGIPR (Homo sapiens, UniProt P48546).
T3 construct: expressed in transfected cells
T3 sequence (P48546 22-466): T1 sequence (P48546 22-466)
As to the kind of experiment: Functional cAMP formation (HTRF) in HEK-293 clonal cells expressing hGIPR, 0.1% bovine casein, without or with 1.0% human serum albumin. In kind it is cell-based. The conditions noted are these: for EC50: cAMP. A digest of the protocol:
as §1

Where [2] appears, read: human GIPR, geometric mean (SEM, n), read-out: Binding Affinity Ki, nM (SEM, n) hGIPR.
Where [3] appears, read: HEK293, 0.1% bovine casein and 1.0% human serum albumin, 37° C., percent of maximal response to GLP-1(7-36)NH2, read-out: hGLP-1R Emax, % ± SEM.
Where [4] appears, read: HEK293, percent of maximal response to GLP-1(7-36)NH2, 37° C., 0.1% bovine casein, arithmetic mean, read-out: hGLP-1R Emax, % ± SEM.
[5] abbreviates: incubated at 37° C., read-out: hGLP-1R EC50, nM (SEM, n).
Where [6] appears, read: 0.1% bovine casein and 1.0% human serum albumin, 37° C., geometric mean, read-out: hGCGR EC50, nM (SEM, n).
Setting [7] is: cAMP, incubated at 37° C., 0.1% bovine casein (no human serum albumin), geometric mean, read-out: hGCGR EC50, nM (SEM, n).
[8] abbreviates: HEK293, 0.1% bovine casein and 1.0% human serum albumin, 37° C., percent of maximal response to GIP(1-42)NH2, read-out: hGIPR Emax, % ± SEM.
[9] abbreviates: HEK293, percent of maximal response to GIP(1-42)NH2, 37° C., 0.1% bovine casein, arithmetic mean, read-out: hGIPR Emax, % ± SEM.

hGLP-1R, sequence (P43220 24-463): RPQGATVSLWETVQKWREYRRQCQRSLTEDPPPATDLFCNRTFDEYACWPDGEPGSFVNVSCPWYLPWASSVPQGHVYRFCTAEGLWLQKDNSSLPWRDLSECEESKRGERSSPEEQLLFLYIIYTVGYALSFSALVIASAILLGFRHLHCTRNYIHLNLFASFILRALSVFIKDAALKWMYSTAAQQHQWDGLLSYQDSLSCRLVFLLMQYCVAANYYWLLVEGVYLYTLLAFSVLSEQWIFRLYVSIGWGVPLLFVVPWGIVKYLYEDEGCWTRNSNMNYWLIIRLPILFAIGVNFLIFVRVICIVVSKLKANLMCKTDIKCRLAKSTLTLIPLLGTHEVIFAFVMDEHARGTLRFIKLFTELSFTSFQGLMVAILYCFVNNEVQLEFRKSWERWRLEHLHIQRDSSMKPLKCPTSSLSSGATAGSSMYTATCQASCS
T2 sequence (P47871 26-477): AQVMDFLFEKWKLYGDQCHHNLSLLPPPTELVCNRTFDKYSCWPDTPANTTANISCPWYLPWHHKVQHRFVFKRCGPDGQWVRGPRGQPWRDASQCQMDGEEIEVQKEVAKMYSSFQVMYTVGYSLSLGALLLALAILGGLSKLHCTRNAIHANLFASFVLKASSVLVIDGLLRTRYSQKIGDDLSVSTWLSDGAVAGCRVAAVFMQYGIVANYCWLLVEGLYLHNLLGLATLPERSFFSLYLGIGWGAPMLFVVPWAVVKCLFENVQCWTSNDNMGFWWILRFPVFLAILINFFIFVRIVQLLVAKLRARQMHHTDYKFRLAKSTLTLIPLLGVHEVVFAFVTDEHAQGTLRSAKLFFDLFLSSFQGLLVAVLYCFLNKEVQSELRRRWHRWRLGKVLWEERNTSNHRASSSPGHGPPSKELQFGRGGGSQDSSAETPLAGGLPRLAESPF

For the compound `CC[C@H](C)[C@H](NC(=O)[C@H](CC(C)C)NC(=O)[C@](C)(Cc1ccc(O)cc1)NC(=O)[C@@H](CCC(=O)O)NC(=O)[C@@H](NC(=O)[C@H](Cc1ccccc1)NC(=O)[C@H](CCC(=O)O)NC(=O)C(C)(C)NC(=O)[C@H](CCC(N)=O)NC(=O)[C@H](C)NC(=O)[C@H](CCCCNC(=O)COCCOCCNC(=O)COCCOCCNC(=O)CC[C@H](NC(=O)CCCCCCCCCCCCC(=O)O)C(=O)O)NC(=O)[C@H](CCCN)NC(=O)[C@H](CC(=O)O)NC(=O)[C@H](CC(C)C)NC(=O)[C@](C)(CC(C)C)NC(=O)[C@@H](NC(=O)[C@](C)(CO)NC(=O)[C@@H](NC(=O)[C@H](CC(=O)O)NC(=O)[C@H](CO)NC(=O)[C@@H](NC(=O)[C@](C)(Cc1ccccc1F)NC(=O)[C@@H](NC(=O)CNC(=O)[C@H](CCC(=O)O)NC(=O)C(C)(C)NC(=O)[C@@H](N)Cc1ccc(O)cc1)[C@@H](C)O)[C@@H](C)O)C(C)C)[C@@H](C)CC)[C@@H](C)CC)C(=O)N[C@@H](CCC(=O)O)C(=O)NCC(=O)NCC(=O)N[C@@H](CCCCNC(=O)COCCOCCNC(=O)COCCOCCNC(=O)CC[C@H](NC(=O)CCCCCCCCCCCCC(=O)O)C(=O)O)C(=O)N[C@@H](CO)C(=O)N[C@@H](CO)C(=O)NCC(=O)N[C@@H](C)C(=O)N1CCC[C@H]1C(=O)N1CCC[C@H]1C(=O)N1CCC[C@H]1C(=O)N[C@@H](CO)C(N)=O` [Example 212], in test [1] (setting [2]), the Ki worked out at 0.161 nM. Also, the Emax at hGLP-1R (setting [3]) came out at 91%; on hGLP-1R (setting [4]) it was 94.7%; on hGIPR (setting [8]), 81%; on hGIPR (setting [9]), 100%. Further, the EC50 on hGLP-1R (setting [5]) was 0.265 nM; at hGCGR (setting [6]), more than 9950 nM; at hGCGR (setting [7]) it was more than 9950 nM; on hGIPR (incubated at 37° C., 0.1% bovine casein (no human serum albumin), geometric mean, read-out: hGIPR EC50, nM (SEM, n)), 0.0385 nM.

As to `CC[C@H](C)[C@H](NC(=O)[C@H](CC(C)C)NC(=O)[C@](C)(Cc1ccc(O)cc1)NC(=O)[C@@H](CCC(=O)O)NC(=O)[C@@H](NC(=O)[C@H](Cc1ccccc1)NC(=O)[C@H](CCC(=O)O)NC(=O)C(C)(C)NC(=O)[C@H](CCC(N)=O)NC(=O)[C@H](C)NC(=O)[C@H](CCCCNC(=O)COCCOCCNC(=O)COCCOCCNC(=O)CC[C@H](NC(=O)CCCCCCCCCCCCC(=O)O)C(=O)O)NC(=O)[C@H](CCCN)NC(=O)[C@H](CC(=O)O)NC(=O)[C@H](CC(C)C)NC(=O)[C@](C)(CC(C)C)NC(=O)[C@@H](NC(=O)C(C)(C)NC(=O)[C@@H](NC(=O)[C@H](CC(=O)O)NC(=O)[C@H](CO)NC(=O)[C@@H](NC(=O)[C@](C)(Cc1ccccc1F)NC(=O)[C@@H](NC(=O)CNC(=O)[C@H](CCC(=O)O)NC(=O)C(C)(C)NC(=O)[C@@H](N)Cc1ccc(O)cc1)[C@@H](C)O)[C@@H](C)O)C(C)C)[C@@H](C)CC)[C@@H](C)CC)C(=O)N[C@@H](CCC(=O)O)C(=O)NCC(=O)NCC(=O)N[C@@H](CCCCNC(=O)COCCOCCNC(=O)COCCOCCNC(=O)CC[C@H](NC(=O)CCCCCCCCCCCCC(=O)O)C(=O)O)C(=O)N[C@@H](CO)C(=O)N[C@@H](CO)C(=O)NCC(=O)N[C@@H](C)C(=O)N1CCC[C@H]1C(=O)N1CCC[C@H]1C(=O)N1CCC[C@H]1C(=O)N[C@@H](CO)C(N)=O` [Example 91], in test [1] (setting [2]), the Ki worked out at 0.126 nM. The Emax at hGLP-1R (setting [3]) amounted to 89.8%; at hGLP-1R (setting [4]), 94 ± 5.44%; on hGIPR (setting [8]), 91.9%; on hGIPR (setting [9]), 92.8 ± 4.69%. In addition, the EC50 was 0.153 nM at hGLP-1R (setting [5]), more than 9950 nM on hGCGR (setting [6]) and more than 9950 nM at hGCGR (setting [7]).

Consider `CC[C@H](C)[C@H](NC(=O)[C@H](CC(C)C)NC(=O)[C@](C)(Cc1ccc(O)cc1)NC(=O)[C@H](CCCCNC(=O)CC[C@H](NC(=O)COCCOCCNC(=O)COCCOCCNC(=O)CC[C@H](NC(=O)CCCCCCCCCOc1ccc(C(=O)O)cc1)C(=O)O)C(=O)O)NC(=O)[C@@H](NC(=O)[C@H](Cc1ccccc1)NC(=O)[C@H](CCCN)NC(=O)C(C)(C)NC(=O)[C@H](CCC(N)=O)NC(=O)[C@H](C)NC(=O)[C@H](CCC(N)=O)NC(=O)[C@H](CCCN)NC(=O)[C@H](CC(=O)O)NC(=O)[C@H](CC(C)C)NC(=O)[C@](C)(CC(C)C)NC(=O)[C@@H](NC(=O)C(C)(C)NC(=O)[C@H](Cc1ccncc1)NC(=O)[C@H](CC(=O)O)NC(=O)[C@H](CO)NC(=O)[C@@H](NC(=O)[C@](C)(Cc1ccccc1F)NC(=O)[C@@H](NC(=O)CNC(=O)[C@H](CCC(=O)O)NC(=O)C(C)(C)NC(=O)[C@@H](N)Cc1ccc(O)cc1)[C@@H](C)O)[C@@H](C)O)[C@@H](C)CC)[C@@H](C)CC)C(=O)N[C@@H](CCCCNC(=O)CC[C@H](NC(=O)COCCOCCNC(=O)COCCOCCNC(=O)CC[C@H](NC(=O)CCCCCCCCCOc1ccc(C(=O)O)cc1)C(=O)O)C(=O)O)C(=O)NCC(=O)NCC(=O)N1CCC[C@H]1C(=O)N[C@@H](CO)C(=O)N[C@@H](CO)C(=O)NCC(=O)N[C@@H](C)C(=O)N1CCC[C@H]1C(=O)N1CCC[C@H]1C(=O)N1CCC[C@H]1C(=O)N[C@@H](CO)C(N)=O` [Example 483], for which the affinity in test [1] corresponds to a Ki of 0.0236 nM. The Emax turned out to be 113% at hGLP-1R (HEK293, read-out: hGLP-1R Emax, % ± SEM, cAMP, 37° C., 0.1% bovine casein and 1.0% human serum albumin, percent of maximal response to GLP-1(7-36)NH2); 118% on hGLP-1R (HEK293, read-out: hGLP-1R Emax, % ± SEM, cAMP, 37° C., 0.1% bovine casein, percent of maximal response to GLP-1(7-36)NH2, arithmetic mean); 92.6% at hGIPR (HEK293, read-out: hGIPR Emax, % ± SEM, cAMP, 37° C., 0.1% bovine casein and 1.0% human serum albumin, percent of maximal response to GIP(1-42)NH2); 97.4% at hGIPR (HEK293, read-out: hGIPR Emax, % ± SEM, cAMP, 37° C., 0.1% bovine casein, percent of maximal response to GIP(1-42)NH2, arithmetic mean). Besides, the EC50 was 0.169 nM at hGLP-1R (hGLP-1R EC50, nM (SEM, n), 37° C.); more than 9950 nM on hGCGR (hGCGR EC50, nM (SEM, n), cAMP, 37° C., 0.1% bovine casein (no human serum albumin), geometric mean); more than 9950 nM on hGCGR (hGCGR EC50, nM (SEM, n), cAMP, 37° C., 0.1% bovine casein and 1.0% human serum albumin, geometric mean (SEM, n)); 0.0138 nM at hGIPR (hGIPR EC50, nM (SEM, n), 37° C., 0.1% bovine casein (no human serum albumin), geometric mean); 0.297 nM on hGIPR (hGIPR EC50, nM (SEM, n), 37° C., 0.1% bovine casein and 1.0% human serum albumin, geometric mean (SEM, n)).

The Ki is the equilibrium dissociation constant of an inhibitor or competing ligand from its target. The Emax is the maximal effect, on the per cent scale that the assay sets. The term EC50 denotes the concentration that produces a half-maximal response.
